From the NIST ThermoML archive (doi:10.1021/acs.jced.8b00466)

Assay: wn = mass fraction of the nth substance listed
Details: 102 kPa, Liquid, Vibrating tube method

O=S(=O)(O)O [sulfuric acid] + O
mass density [kg/m3]
Details	273.15 K	283.15 K	293.15 K	298.15 K	303.15 K	313.15 K	323.15 K	333.15 K
w1 = 0.0966	1069.26	1066.08	1062.3	1060.23	1058.04	1053.6	1049.23	1043.53
w1 = 0.1151	1085.84	1082.07	1077.83	1075.55	1073.22	1068.89	1063.56	1058.71
w1 = 0.1365	1101.81	1097.5	1092.86	1090.39	1087.86	1082.6	1078.45	1072.64
w1 = 0.1536	1114.2	1109.5	1104.52	1101.94	1099.31	1093.86	1089.88	1084.63
w1 = 0.1728	1128.95	1123.83	1118.46	1115.73	1112.95	1107.33	1101.93	1095.88
w1 = 0.192	1145.91	1140.32	1134.59	1131.69	1128.88	1123.78	1118.59	1113.22
w1 = 0.2112	1159.41	1153.51	1147.52	1144.52	1141.48	1135.36	1129.37	1124.62
w1 = 0.2304	1177.19	1170.92	1164.6	1161.54	1158.39	1152.03	1148.5	1140.31
w1 = 0.2409	1185.57	1179.14	1172.69	1169.48	1166.27	1160.54	1154.05	1147.47
w1 = 0.2688	1209.44	1201.63	1194.85	1191.58	1188.22	1181.52	1174.82	1168.95
w1 = 0.288	1224.11	1217.14	1210.18	1206.76	1203.33	1196.6	1189.76	1183.88
w1 = 0.3072	1241.05	1233.47	1227.15	1223.62	1220.11	1213.75	1206.84	1200.67
w1 = 0.3265	1256.77	1249.51	1242.27	1238.85	1235.29	1228.03	1221.02	1214.92
w1 = 0.3457	1272.18	1264.81	1257.51	1253.89	1250.3	1243.38	1236.27	1230.89
w1 = 0.3648	1288.04	1280.59	1273.21	1269.57	1265.94	1258.73	1251.57	1244.44
w1 = 0.384	1305.68	1298.19	1290.73	1287.05	1283.37	1276.2	1268.99	1263.24
w1 = 0.4	1319.14	1311.55	1304.07	1300.36	1296.68	1289.37	1282.4	1275.2
